“Also recorded” adds a separate entry of the source.
Columns and labels:
MDA-MB-231 cells = test: MTT antiproliferative assay, MDA-MB-231; format: cell-based, human; conditions: for inhibition at 10 µM / inhibition at 30 µM: Homo sapiens, 72 h, values <20% considered negligible, read-out: Growth inhibition (%) ± SEM, MDA-MB-231; for inhibition at 10 µM: MDA-MB-231, 10 μM; for inhibition at 30 µM: MDA-MB-231, 30 μM; for Antiproliferative effect / selectivity on MDA-MB-231, in words: 10 and 30 μM
Outline: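 MTT, 72 h exposure; test conc. 10 μM and 30 μM; 5000 cells/well, o/n pre-incubation; EMEM/10% FBS, 37 °C, 5% CO2; A545 nm readout.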

[1] = test system: human cancer cell lines (HeLa, SiHa, A2780, MCF-7 and MDA-MB-231); test: MTT antiproliferative assay, whole cancer cell panel; format: cell-based; conditions: 10 and 30 μM
Description: The in vitro antiproliferative activities of the synthesised aminotriols 5–18 against a panel of different human cancer cell lines of gynecological origin, including cervical (SiHA and HeLa), breast (MCF7 and MDA-MB-231), ovary (A2780) cancers and NIH/3T3 healthy fibroblasts, were assayed by the MTT method. Cisplatin, a clinically applied anticancer agent was used as a reference compound, and the results are summarised in Figure 3 and Table S1 in the Supplementary Materials.
The growth-inhibitory effects of the presented terpenes were determined by a standard MTT [3-(4,5-dimethylthiazol2-yl)-2,5-diphenyltetrazolium bromide] assay against […] human cancer cell lines (cervical cancer HeLa and SiHa cell lines, breast cancer MCF-7 and MDA-MB-231 and ovarian cancer A2780). Murine embryonal fibroblast cells (NIH/3T3) were used to determine selectivity. All cell lines were purchased from the European Collection of Cell Cultures (Salisbury, UK). The cells were cultivated in Eagle’s minimal essential medium supplemented with 10% fetal bovine serum, 1% non-essential amino acids, and 1% Antibiotic-Antimycotic complex (penicillin, streptomycin, amphotericin B) at 37 °C in a humidified atmosphere containing 5% CO2. All media and supplements were purchased from Lonza Group Ltd. (Basel, Switzerland). Cancer cells were seeded into 96-well plates (5000 cells/well) after an overnight incubation, and the test compounds were added at two different concentrations (10 μM and 30 μM) and incubated for another 72 h under cell-culturing conditions. Finally, 20 μL of a 5 mg/mL MTT solution was added to each well, and the contents were incubated for a further 4 h. The medium was removed, and the precipitated formazan crystals were dissolved in DMSO by shaking at 37 °C for 60 min. The absorbance was measured at 545 nm by using a microplate reader (SPECTROStar Nano, BMG Labtech, Offenburg, Germany). Clinically utilised anticancer agent cisplatin (Ebewe GmbH, Unterach, Austria) was included as a reference molecule. Calculations were performed using the GraphPad Prism 9 software (GraphPad Software Inc., San Diego, CA, USA).

[2] = Intestinal-specific parallel artificial membrane permeability assay (PAMPA-GI); format: in vitro ADME; conditions: for Papp at 4 h, 500 µM: PAMPA, read-out: PAMPA-GI Pe; for Papp at 4 h, 500 µM / PAMPA-GI MR (membrane retention): gradient pH system (pH donor 6.5 → pH acceptor 7.4) after 4 h, at 37 °C, mean ± S.E.M, n = 3; for Intestinal-specific permeability (Pe), category in words: PAMPA-GI
Outline: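 Kinetic solubility: filtrates quantified by HPLC-DAD-MS against 5–500 μM calibration, target concentration 500 μM. PAMPA-GI: pH 6.5 phosphate donor, pH 7.4 PBS/5% DMSO acceptor, phosphatidylcholine/cholesterol 2:1 in dodecane membrane, 4 h at 37 °C; Pe and membrane retention calculated from HPLC-DAD-MS concentrations.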

SMILES: COC(=O)[C@]1(C)CCC[C@@]2(C)C3CC[C@]4(O)C[C@@]3(CCC21)[C@@H](O)[C@]4(O)CNCc1ccccc1 (stereo partly drawn) [Compound 5, (4R,6aR,7R,8R,9S,11bS)-Methyl 8-((Benzylamino)methyl)-7,8,9-trihydroxy-4,11b-dimethyltetradecahydro-6a,9-methanocyclohepta[a]naphthalene-4-carboxylate]
- inhibition at 10 µM (MDA-MB-231 cells): 34.6 ± 2.98%
- inhibition at 30 µM (MDA-MB-231 cells): 95.8 ± 0.63%
- Antiproliferative activity on the cancer cell panel, in words [1]: significant activity in higher concentrations only
- Papp at 4 h, 500 µM [2]: 0.64 ± 0.03 ×10⁻⁶ cm/s
- PAMPA-GI MR (membrane retention) [2]: 29.8 ± 0.3%

SMILES: CC[C@H](NC[C@@]1(O)[C@H](O)[C@@]23CCC4[C@@](C)(CCC[C@@]4(C)C(=O)OC)C2CC[C@]1(O)C3)c1ccccc1 (stereo partly drawn) [Compound 16, (4R,6aR,7R,8R,9S,11bS)-Methyl 7,8,9-Trihydroxy-4,11b-dimethyl-8-((((S)-1-phenylpropyl)amino)methyl)tetradecahydro-6a,9-methanocyclohepta[a]naphthalene-4-carboxylate]
- inhibition at 10 µM (MDA-MB-231 cells): 39.3 ± 1.99%
- inhibition at 30 µM (MDA-MB-231 cells): 96.65 ± 0.37%
- Intestinal-specific permeability (Pe), category in words [2]: poor permeability
- Papp at 4 h, 500 µM [2]: 0.25 ± 0.09 ×10⁻⁶ cm/s
- PAMPA-GI MR (membrane retention) [2]: 44.6 ± 4.2%

SMILES: COC(=O)[C@]1(C)CCC[C@@]2(C)C3CC[C@]4(O)C[C@@]3(CCC21)[C@@H](O)[C@]4(O)CN(C)Cc1ccccc1 (stereo partly drawn) [Compound 6, (4R,6aR,7R,8R,9S,11bS)-Methyl 8-((Benzyl(methyl)amino)methyl)-7,8,9-trihydroxy-4,11b-dimethyltetradecahydro-6a,9-methanocyclohepta[a]naphthalene-4-carboxylate]
- Antiproliferative effect / selectivity on MDA-MB-231, in words (MDA-MB-231 cells): slight selectivity
- inhibition at 10 µM (MDA-MB-231 cells): < 20%
- inhibition at 30 µM (MDA-MB-231 cells): 82.56 ± 0.69%
- Antiproliferative activity on the cancer cell panel, in words [1]: lower bioactivity; also recorded: significant activity in higher concentrations only
- Papp at 4 h, 500 µM [2]: 0.23 ± 0.08 ×10⁻⁶ cm/s
- PAMPA-GI MR (membrane retention) [2]: 67.3 ± 8.6%

SMILES: COC(=O)[C@]1(C)CCC[C@@]2(C)C3CC[C@]4(O)C[C@@]3(CCC21)[C@@H](O)[C@]4(O)CNCc1ccc(F)cc1 (stereo partly drawn) [Compound 9, (4R,6aR,7R,8R,9S,11bS)-Methyl 8-(((4-Fluorobenzyl)amino)methyl)-7,8,9-trihydroxy-4,11b-dimethyltetradecahydro-6a,9-methanocyclohepta[a]naphthalene-4-carboxylate]
- Antiproliferative effect / selectivity on MDA-MB-231, in words (MDA-MB-231 cells): decent activity; also recorded: smaller but also selective antiproliferative effect
- inhibition at 10 µM (MDA-MB-231 cells): 83 ± 1.71%
- inhibition at 30 µM (MDA-MB-231 cells): 93.63 ± 0.36%
- Papp at 4 h, 500 µM [2]: 0.4 ± 0.04 ×10⁻⁶ cm/s
- PAMPA-GI MR (membrane retention) [2]: 63.8 ± 4.9%

SMILES: CC[C@@H](NC[C@@]1(O)[C@H](O)[C@@]23CCC4[C@@](C)(CCC[C@@]4(C)C(=O)OC)C2CC[C@]1(O)C3)c1ccccc1 (stereo partly drawn) [Compound 15, (4R,6aR,7R,8R,9S,11bS)-Methyl 7,8,9-Trihydroxy-4,11b-dimethyl-8-((((R)-1-phenylpropyl)amino)methyl)tetradecahydro-6a,9-methanocyclohepta[a]naphthalene-4-carboxylate]
- Antiproliferative effect / selectivity on MDA-MB-231, in words (MDA-MB-231 cells): decent activity; also recorded: smaller but also selective antiproliferative effect
- inhibition at 10 µM (MDA-MB-231 cells): 68.3 ± 2.86%
- inhibition at 30 µM (MDA-MB-231 cells): 95.63 ± 0.45%
- Intestinal-specific permeability (Pe), category in words [2]: poor permeability
- Papp at 4 h, 500 µM [2]: 0.14 ± 0.04 ×10⁻⁶ cm/s
- PAMPA-GI MR (membrane retention) [2]: 46.8 ± 3.3%
